Experimental data as given in patent US5061723A, “Non-teratogenic vitamin A preparation for women of child-bearing age” (Iowa State University Research Foundation, Inc., priority 1989, dated 1991).

Legend:
pregnant rats (fetuses) = assay: Teratogenicity test in pregnant rats (single oral dose on day 8.5 of gestation; fetuses examined day 19-19.5); format: in vivo, rat
Method: All-trans retinoic acid glucuronide was tested for teratogenicity in pregnant rats.
The retinoic acid glucuronide dissolved in vegetable oil. Equivalent amount of all-trans retinoic acid was also dissolved in the vegetable oil. Groups of pregnant rats were dosed orally with either retinoid glucuronide or retinoic acid on day 8.5 of gestation. […] The rats were killed on day 19.5 of a 21 day gestational period, and the fetuses were examined for viability, growth, and developmental abnormalities.
Rats that became pregnant during the same night were selected for the study. The rats were divided into 3 groups. Rats in Group 1 received orally 55 mg of the all-trans retinoic acid glucuronide (equivalent to 35 mg of retinoic acid) or a very large dose of 108 mg of the glucuronide in peanut oil. Rats in Group 2 received orally 35 mg of all-trans retinoic acid in peanut oil. Rats in Group 3 received no retinoid and served as control. The rats were then allowed to grow normally and on day 19, they were killed and fetuses were examined.

[1] = cited from earlier work
HL-60 cells = details: cited from earlier work; for activity in the HL-60 systems assay: compared with retinoic acid and retinol
Solubility in water = format: physicochemical; details: all-trans retinoyl β-glucuronide
β-glucuronidase = assay: Hydrolysis by β-glucuronidase (from E. coli); format: biochemical; details: phosphate buffer pH 6.8, 0.5-2 hrs
Method: An analytically pure sample of retinoyl β-glucuronide was obtained by HPLC of the above preparation on a Whatman ODS-3 column (M9, 50 cm) using methanol/water (7:3) containing 10 mM ammonium acetate at a flow rate of 3 ml/min. Retinoyl β-glucuronide (tR =49.7 min) separated from traces of isomers or anomers (tR =46.4 min). The eluate carrying retinoyl β-glucuronide was diluted with water and made just acidic with 0.1N HCl. The product was extracted with ethyl acetate. The extract was washed with water, dried over anhydrous sodium sulfate, and then evaporated to dryness. The residue was dissolved in a small volume of diethyl ether and all-trans retinoyl β-glucuronide was precipitated with hexane. The solid was separated and dried. All-trans retinoyl β-glucuronide:m.p. 142°-143° C. (darkens at 125° C.); UVmax 360 nm (E1cm =1065) in methanol and 365 nm in water. The ^1 H-NMR, IR and Mass spectra and C, H analysis results were consistent with the structure.

human fetus = details: oral, 0.5 to 2 mg/kg body weight per 24 hours; cited from earlier work

In the case of CC1=C(/C=C/C(C)=C/C=C/C(C)=C/C(=O)O)C(C)(C)CCC1 [Retinoic acid, all-trans retinoic acid, reference compound], the “outcome of pregnancy / embryos” value (pregnant rats (fetuses); same large doses of retinoic acid, oral) is given as “did not carry the pregnancy to term--all the embryos died and were being resorbed” and the water solubility [1] is given as “not water-soluble”.
In the case of CC1=C(/C=C/C(C)=C/C=C/C(C)=C/C(=O)O[C@@H]2O[C@H](C(=O)O)[C@@H](O)[C@H](O)[C@H]2O)C(C)(C)CCC1 [Retinoyl β-glucuronide, All-trans retinoyl β-glucuronide], the condition of pups (pregnant rats (fetuses); rat, in vivo, po) is listed as “All the pups were normal and live”, the “teratogenicity, observation in words” value (pregnant rats (fetuses); rat, in vivo, po) is listed as “did not show any sign of teratogenicity” and the “activity in the HL-60 systems assay” value (HL-60 cells) is listed as “activity similar to retinoic acid and retinol”. For the same molecule, the “cytotoxicity to HL-60 cells, less than all-trans retinoic acid” value (HL-60 cells; in vitro, vs all-trans retinoic acid, Gallup et al. and Zile et al.) was 50%, the solubility in water (Solubility in water) was “soluble in water” and the “product of incubation with β-glucuronidase” value (β-glucuronidase) was “generated retinoic acid”.
For CC1=C(/C=C/C(C)=C/C=C/C(C)=C\C(=O)O)C(C)(C)CCC1 [isotretinoin, 13-cis form of retinoic acid], the “teratogenicity at typical clinical doses” value (human fetus) is listed as “highly teratogenic”.
For CC1=C(/C=C/C(C)=C/C=C/C(C)=C/COC2O[C@H](C(=O)O)[C@@H](O)[C@H](O)[C@H]2O)C(C)(C)CCC1 (some centres unmarked) [retinol glucuronide, reference compound], the “activity in the HL-60 systems assay” value (HL-60 cells) is given as “activity similar to retinoic acid and retinol”.
For CC1=C(/C=C/C(C)=C/C=C/C(C)=C/CO)C(C)(C)CCC1 [retinol], the water solubility [1] is given as “water-insoluble”.
